Results from patent publication US20110098269A1, “Substituted Pyridazinone Derivatives as Histamine-3 (H3) Receptor Ligands” (Cephalon, Inc., priority 2008, published 2011).

What was measured:
[1] = biological target: T1, rat histamine H3 receptor (Rattus norvegicus, UniProt Q9QYN8); experiment: Rat H3 radioligand binding ([3H]-N-alpha-methylhistamine, CHO-A3 cell membranes); conditions: Rat H3 binding constant, class symbols; read-out: rH3 Ki
T1 construct: encoding the entire 445-amino-acid rat histamine H3 receptor; expressed in transfected cells
Text: Cell line development and membrane preparation. The rat H3 receptor cDNA was PCR amplified from reverse-transcribed RNA pooled from rat thalamus, hypothalamus, striatum and prefrontal cortex with a sequence corresponding to by #338-1672 of Genbank file #NM_053506, encoding the entire 445-amino-acid rat histamine H3 receptor. This was engineered into the pIRES-neo3 mammalian expression vector, which was stably transfected into the CHO-A3 cell line (Euroscreen, Belgium), followed by clonal selection by limiting dilution. Cells were harvested and cell pellets were frozen (−80° C.). Cell pellets were resuspended in 5 mM Tris-HCl, pH 7.5 with 5 nM EDTA and a cocktail of protease inhibitors (Complete Protease Inhibitor Tablets, Roche Diagnostics). Cells were disrupted using a polytron cell homogenizer and the suspension was centrifuged at 1000×g for 10 minutes at 4° C. The pellet was discarded and the supernatant centrifuged at 40,000×g for 30 min at 4° C. This membrane pellet was washed in membrane buffer containing 50 mM Tris-HCl, pH 7.5 with 0.6 mM EDTA, 5 mM MgCl2 and protease inhibitors, recentrifuged as above and the final pellet resuspended in membrane buffer plus 250 mM sucrose and frozen at −80° C.
(§1) Radioligand Binding. Membranes were resuspended in 50 mM Tris HCl (pH 7.4), 5 mM MgCl2, 0.1% BSA. The membrane suspensions (10 μg protein per well) were incubated in a 96 well microtiter plate with [^3H]-N-alpha-methylhistamine (approximately 1 nM final concentration), test compounds at various concentrations (0.01 nM-30 μM) and scintillation proximity beads (Perkin Elmer, FlashBlueGPCR Scintillating Beads) in a final volume of 80 μl for 4 hours at room temperature, protected from light. Non-specific binding was determined in the presence of 10 μM clobenpropit. Radioligand bound to receptor, and therefore in proximity to the scintillation beads, was measured using a MicroBeta scintillation counter.

human H3 receptor = biological target: T2, human H3 receptor (Homo sapiens, UniProt Q9Y5N1); experiment: Human H3 radioligand binding ([3H]-N-alpha-methylhistamine, CHO cell membranes); conditions: Human H3 binding constant, class symbols; read-out: hH3 Ki
T2 construct: expressed in transfected cells
Experimental: Methods: CHO cells stably expressing the human H3 receptor (GenBank: NM_007232) were harvested and cell pellets were frozen (−80° C.). Cell pellets were resuspended in 5 mM Tris-HCl, pH 7.5 with 5 nM EDTA and a cocktail of protease inhibitors (Complete Protease Inhibitor Tablets, Roche Diagnostics). Cells were disrupted using a polytron cell homogenizer and the suspension was centrifuged at 1000×g for 10 minutes at 4° C. The pellet was discarded and the supernatant centrifuged at 40,000×g for 30 min at 4° C. This membrane pellet was washed in membrane buffer containing 50 mM Tris-HCl, pH 7.5 with 0.6 mM EDTA, 5 mM MgCl2 and protease inhibitors, recentrifuged as above and the final pellet resuspended in membrane buffer plus 250 mM sucrose and frozen at −80° C.
as §1

T2 sequence (Q9Y5N1 whole entry): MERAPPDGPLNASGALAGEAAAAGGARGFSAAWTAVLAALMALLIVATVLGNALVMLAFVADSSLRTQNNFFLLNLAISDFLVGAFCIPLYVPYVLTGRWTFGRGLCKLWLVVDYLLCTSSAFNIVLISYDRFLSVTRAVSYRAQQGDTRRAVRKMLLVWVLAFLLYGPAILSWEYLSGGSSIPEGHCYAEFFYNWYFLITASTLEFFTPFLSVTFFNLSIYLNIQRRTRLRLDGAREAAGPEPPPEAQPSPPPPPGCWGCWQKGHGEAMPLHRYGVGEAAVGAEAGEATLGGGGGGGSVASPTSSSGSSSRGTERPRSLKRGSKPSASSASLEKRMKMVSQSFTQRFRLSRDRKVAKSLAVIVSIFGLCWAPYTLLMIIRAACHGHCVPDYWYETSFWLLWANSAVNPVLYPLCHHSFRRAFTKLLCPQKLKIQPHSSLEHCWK
T1 sequence (Q9QYN8 whole entry): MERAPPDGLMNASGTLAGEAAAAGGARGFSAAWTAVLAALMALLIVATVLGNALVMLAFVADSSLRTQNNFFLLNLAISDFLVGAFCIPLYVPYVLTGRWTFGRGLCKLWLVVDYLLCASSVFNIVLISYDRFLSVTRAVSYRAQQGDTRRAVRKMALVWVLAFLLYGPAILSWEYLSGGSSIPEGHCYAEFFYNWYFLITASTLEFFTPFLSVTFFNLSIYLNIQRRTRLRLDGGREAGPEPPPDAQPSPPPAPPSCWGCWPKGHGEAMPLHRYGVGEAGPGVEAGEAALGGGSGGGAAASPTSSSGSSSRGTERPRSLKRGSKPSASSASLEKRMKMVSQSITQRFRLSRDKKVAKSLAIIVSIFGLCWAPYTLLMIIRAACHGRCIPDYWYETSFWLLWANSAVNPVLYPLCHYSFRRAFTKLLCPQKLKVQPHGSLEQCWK

Row | SMILES | Ki [1] [µM] | Ki (human H3 receptor) [µM] | melting point [°C]
1 | O=C1CCC(c2ccc3c(c2)CCN(C2CCC2)CC3)=NN1CC(F)(F)F [Example 10, 6-(3-Cyclobutyl-2,3,4,5-tetrahydro-1H-benzo[d]azepin-7-yl)-2-(2,2,2-trifluoro-ethyl)-4,5-dihydro-2H-pyridazin-3-one] | < 0.1 | < 0.1 | 139 to 140
2 | CC(C)N1CCc2ccc(-c3ccc(=O)n(C(C)C)n3)cc2CC1 [Example 8, 2-Isopropyl-6-(3-isopropyl-2,3,4,5-tetrahydro-1H-benzo[d]azepin-7-yl)-2H-pyridazin-3-one] | 0.1 to 1 | 0.1 to 1 | 244 to 245
3 | O=C(c1ccc(-c2ccc(=O)[nH]n2)cc1)N1CCC[C@H]1CN1CCCC1 [Example 50, 6-[4-((S)-2-Pyrrolidin-1-ylmethyl-pyrrolidine-1-carbonyl)-phenyl]-2H-pyridazin-3-one] | < 0.1 | < 0.1 | 62 to 66
4 | CC(C)n1nc(-c2ccc3c(c2)CCN(C2CCC2)CC3)ccc1=O [Example 7, 6-(3-Cyclobutyl-2,3,4,5-tetrahydro-1H-benzo[d]azepin-7-yl)-2-isopropyl-2H-pyridazin-3-one] | 0.1 to 1 | < 0.1 | 199 to 200
5 | O=c1ccc(-c2ccc3c(c2)CCN(C2CCC2)CC3)nn1CC(F)(F)F [Example 11, 6-(3-Cyclobutyl-2,3,4,5-tetrahydro-1H-benzo[d]azepin-7-yl)-2-(2,2,2-trifluoro-ethyl)-2H-pyridazin-3-one] | < 0.1 | < 0.1 | 142 to 143
6 | CCN1N=C(c2ccc3c(c2)CCN(C2CCC2)CC3)CCC1=O [Example 12, 6-(3-Cyclobutyl-2,3,4,5-tetrahydro-1H-benzo[d]azepin-7-yl)-2-ethyl-4,5-dihydro-2H-pyridazin-3-one] | < 0.1 | < 0.1 | 97 to 98
7 | O=C1NN=C(c2ccc3c(c2)CCN(C2CCC2)CC3)C2CCCC12 (stereo not drawn) [Example 42, 4-(3-Cyclobutyl-2,3,4,5-tetrahydro-1H-benzo[d]azepin-7-yl)-2,4a,5,6,7,7a-hexahydro-cyclopenta[d]pyridazin-1-one] | < 0.1 | < 0.1 | 198 to 201
8 | O=C1NN=C(c2ccc3c(c2)CCN(C2CCC2)CC3)C2CCCCC12 (stereo not drawn) [Example 44, 4-(3-Cyclobutyl-2,3,4,5-tetrahydro-1H-benzo[d]azepin-7-yl)-4-a,5,6,7,8,8a-hexahydro-2H-phthalazin-1-one] | < 0.1 | < 0.1 | 223 to 225
9 | CCCCn1nc(-c2ccc3c(c2)CCN(C2CCC2)CC3)ccc1=O [Example 14, 2-Butyl-6-(3-cyclobutyl-2,3,4,5-tetrahydro-1H-benzo[d]azepin-7-yl)-2H-pyridazin-3-one] | < 0.1 | < 0.1 | 88 to 89
10 | Cn1nc(-c2ccc3c(c2)CCNCC3)ccc1=O [Example 20, 2-Methyl-6-(2,3,4,5-tetrahydro-1H-benzo[d]azepin-7-yl)-2H-pyridazin-3-one] | > 1 | > 1 | 183 to 185
11 | Cn1nc(-c2ccc3c(c2)CCN(C2CCC2)CC3)ccc1=O [Example 21, 6-(3-Cyclobutyl-2,3,4,5-tetrahydro-1H-benzo[d]azepin-7-yl)-2-methyl-2H-pyridazin-3-one] | < 0.1 | < 0.1 | 287 to 288
12 | CS(=O)(=O)c1ccc(-n2nc(-c3ccc4c(c3)CCN(C3CCC3)CC4)ccc2=O)cc1 [Example 25, 6-(3-Cyclobutyl-2,3,4,5-tetrahydro-1H-benzo[d]azepin-7-yl)-2-(4-methanesulfonyl-phenyl)-2H-pyridazin-3-one] | 0.1 to 1 | < 0.1 | 225
13 | CCCCN1N=C(c2ccc3c(c2)CCN(C2CCC2)CC3)CCC1=O [Example 13, 2-Butyl-6-(3-cyclobutyl-2,3,4,5-tetrahydro-1H-benzo[d]azepin-7-yl)-4,5-dihydro-2H-pyridazin-3-one] | < 0.1 | < 0.1 | 104 to 105
14 | O=C1CCC(c2ccc3c(c2)CCN(C2CCC2)CC3)=NN1C1CCC1 [Example 19, 2-Cyclobutyl-6-(3-cyclobutyl-2,3,4,5-tetrahydro-1H-benzo[d]azepin-7-yl)-4,5-dihydro-2H-pyridazin-3-one] | 0.1 to 1 | < 0.1 | 126 to 128
15 | O=C1CCC(c2ccc3c(c2)CCN(C2CCC2)CC3)=NN1CCO [Example 17, 6-(3-Cyclobutyl-2,3,4,5-tetrahydro-1H-benzo[d]azepin-7-yl)-2-(2-hydroxy-ethyl)-4,5-dihydro-2H-pyridazin-3-one] | < 0.1 | < 0.1 | 141 to 142
16 | O=C1CCC(c2ccc3c(c2)CCN(C2CCC2)CC3)=NN1 [Example 9, 6-(3-Cyclobutyl-2,3,4,5-tetrahydro-1H-benzo[d]azepin-7-yl)-4,5-dihydro-2H-pyridazin-3-one] | 0.1 to 1 | < 0.1 | 178 to 179
17 | CC(C)Cn1nc(-c2ccc3c(c2)CCN(C2CCC2)CC3)ccc1=O [Example 16, 6-(3-Cyclobutyl-2,3,4,5-tetrahydro-1H-benzo[d]azepin-7-yl)-2-isobutyl-2H-pyridazin-3-one] | 0.1 to 1 | < 0.1 | 245 to 246
18 | CC(C)CN1N=C(c2ccc3c(c2)CCN(C2CCC2)CC3)CCC1=O [Example 15, 6-(3-Cyclobutyl-2,3,4,5-tetrahydro-1H-benzo[d]azepin-7-yl)-2-isobutyl-4,5-dihydro-2H-pyridazin-3-one] | 0.1 to 1 | < 0.1 | 134 to 135
19 | O=c1ccc(-c2ccc3c(c2)CCN(C2CCC2)CC3)nn1CCO [Example 18, 6-(3-Cyclobutyl-2,3,4,5-tetrahydro-1H-benzo[d]azepin-7-yl)-2-(2-hydroxy-ethyl)-2H-pyridazin-3-one] | < 0.1 | < 0.1 | 157 to 158
20 | O=c1ccc(-c2ccc(Oc3ccc4c(c3)CCN(C3CCC3)CC4)nc2)n[nH]1 [Example 27, 6-[6-(3-Cyclobutyl-2,3,4,5-tetrahydro-1H-benzo[d]azepin-7-yloxy)-pyridin-3-yl]-2H-pyridazin-3-one] | < 0.1 | < 0.1 | 215 to 220
21 | O=c1ccc(-c2ccc(Oc3ccc4c(c3)CCN(C3CCC3)CC4)nc2)nn1-c1ccccn1 [Example 28, 6-[6-(3-Cyclobutyl-2,3,4,5-tetrahydro-1H-benzo[d]azepin-7-yloxy)-pyridin-3-yl]-2-pyridin-2-yl-2H-pyridazin-3-one] | < 0.1 | < 0.1 | 178 to 182
22 | CC(C)n1nc(-c2ccc(Oc3ccc4c(c3)CCN(C3CCC3)CC4)nc2)ccc1=O [Example 29, 6-[6-(3-Cyclobutyl-2,3,4,5-tetrahydro-1H-benzo[d]azepin-7-yloxy)-pyridin-3-yl]-2-isopropyl-2H-pyridazin-3-one] | < 0.1 | < 0.1 | 70 to 73
